From patent publication US11608341B2, “Substituted tetrahydropyrazolo[3,4-d]pyrimidines and tetrahydropyrazolo[4,3-d]pyrimidines as C5A receptor modulators” (Idorsia Pharmaceuticals Ltd., priority 2018, dated 2023) come the findings set out here.

Structures are written as SMILES.

For this experiment, the target named is T1, C5AR1 (Homo sapiens, UniProt P21730).
T1 construct: host or cells: CHO-K1
T1 sequence (P21730 1-350): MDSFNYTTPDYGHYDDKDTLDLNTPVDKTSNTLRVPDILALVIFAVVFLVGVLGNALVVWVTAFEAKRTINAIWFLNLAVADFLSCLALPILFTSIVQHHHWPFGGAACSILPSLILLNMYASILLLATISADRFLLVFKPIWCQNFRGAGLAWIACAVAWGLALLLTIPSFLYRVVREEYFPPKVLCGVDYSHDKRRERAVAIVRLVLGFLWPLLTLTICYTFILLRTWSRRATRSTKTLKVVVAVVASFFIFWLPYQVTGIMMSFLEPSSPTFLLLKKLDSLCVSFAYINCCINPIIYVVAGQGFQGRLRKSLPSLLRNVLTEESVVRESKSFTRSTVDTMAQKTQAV
Put plainly: In vitro assay: antagonism of C5a-induced beta-arrestin recruitment (PathHunter) in CHO-K1 C5AR1 beta-arrestin cell line. To be noted: antagonistic activity, 1-10 nM C5a agonist, geometric mean where several measurements, read-out: C5aR IC50. Format: cell-based. The essentials:
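Antagonist or DMSO added first, then C5a (1-10 nM, added at 6-fold end concentration), 1.5 h at 37 °C. PathHunter detection reagent was added for 45 min at RT before plate reading. IC50s come from antagonist serial dilutions in nmol/l and are geometric means of several measurements.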
(In general: Recruitment of arrestin is a read-out of receptor activation apart from second messengers.)

Consider `COc1nccc(C)c1N1CCC(N2Cc3cn(COCC[Si](C)(C)C)nc3N(Cc3ccccc3C(F)(F)F)C2=O)CC1` [Example 196], for which the 50% inhibitory concentration (IC50) (commonly the concentration that inhibits the measured activity by half) came out at 0.011 µM. Regarding `COc1nccc(C)c1N1CCC(N2Cc3c[nH]nc3N(Cc3ccccc3C(F)(F)F)C2=O)CC1` [Example 197], the IC50 stood at 0.017 µM. For `Cc1cccc(F)c1N1CCC(N2Cc3nn(CC(C)(F)F)cc3N(Cc3ccccc3C(F)(F)F)C2=O)CC1` [Example 198] the value was 0.013 µM; for `Cc1cccc(F)c1N1CCC(N2Cc3nn(COCC[Si](C)(C)C)cc3N(Cc3ncccc3C(F)(F)F)C2=O)CC1` [Example 199], 0.032 µM. Turning to `Cc1cccc(F)c1N1CCC(N2Cc3cn(CC4(F)CC4)nc3N(Cc3ncccc3C(F)(F)F)C2=O)CC1` [Example 200], the IC50 is 0.004 µM. Under `COc1nccc(C)c1N1CCC(N2Cc3cn(CC4(F)CC4)nc3N(Cc3ccccc3C(F)(F)F)C2=O)CC1` [Example 201] stands 0.006 µM; under `Cc1cccc(F)c1N1CCC(N2Cc3n[nH]cc3N(Cc3ncccc3C(F)(F)F)C2=O)CC1` [Example 204], 0.023 µM; under `COc1nccc(C)c1N1CCC(N2Cc3cn(CC(C)(F)F)nc3N(Cc3ccccc3C(F)(F)F)C2=O)CC1` [Example 205], 0.008 µM. Under `Cc1cccc(F)c1N1CCC(N2Cc3nn(CC4(F)CC4)cc3N(Cc3ncccc3C(F)(F)F)C2=O)CC1` [Example 208] stands 0.003 µM. Turning to `COc1nccc(C)c1N1CCC(N2Cc3cn(C4CC4)nc3N(Cc3ccccc3C(F)(F)F)C2=O)CC1` [Example 209], the half-inhibitory concentration (IC50) amounted to 0.005 µM.

In the case of `Cc1cccc(F)c1N1CCC(N2Cc3cnn(CC4CC4)c3N(Cc3ccccc3C(F)(F)F)C2=O)CC1` [Example 210], the IC50 came to 0.046 µM. Regarding `Cc1cccc(F)c1N1CCC(N2Cc3nn(C4CC4)cc3N(Cc3ncccc3C(F)(F)F)C2=O)CC1` [Example 212], the IC50 was determined as 0.01 µM.

Consider `Cc1cccc(F)c1N1CCC(N2Cc3cn(C4CC4)nc3N(Cc3c(Br)cccc3C(F)(F)F)C2=O)CC1` [Example 213], for which the IC50 amounted to 0.053 µM. For `Cc1cccc(F)c1N1CCC(N2Cc3cn(CC(C)(F)F)nc3N(Cc3c(Br)cccc3C(F)(F)F)C2=O)CC1` [Example 214] the value was 0.087 µM; for `Cc1cccc(F)c1N1CCC(N2Cc3c(cnn3C3CC3)N(Cc3ncccc3C(F)(F)F)C2=O)CC1` [Example 215], 0.146 µM. Take `COc1nccc(C)c1N1CCC(N2Cc3c(cnn3COCC[Si](C)(C)C)N(Cc3ccccc3C(F)(F)F)C2=O)CC1` [Example 216]: the IC50 was 0.041 µM. For `Cc1cccc(F)c1N1CCC(C)(N2Cc3cn(C)nc3N(Cc3ccccc3C(F)(F)F)C2=O)CC1` [Example 217], the IC50 worked out at 0.011 µM. Under `COc1nccc(C)c1N1CCC(N2Cc3n[nH]cc3N(Cc3ccccc3C(F)(F)F)C2=O)CC1` [Example 218] stands 0.012 µM; under `COc1nccc(C)c1N1CCC(N2Cc3nn(CC(C)(F)F)cc3N(Cc3ccccc3C(F)(F)F)C2=O)CC1` [Example 219], 0.038 µM. Under `COc1nccc(C)c1N1CCC(N2Cc3nn(CC4(F)CC4)cc3N(Cc3ccccc3C(F)(F)F)C2=O)CC1` [Example 222] stands 0.019 µM. For `COc1nccc(C)c1N1CCC(N2Cc3nn(C4CC4)cc3N(Cc3ccccc3C(F)(F)F)C2=O)CC1` [Example 223] the value was 0.032 µM; for `COc1nccc(C)c1N1CCC(N2Cc3nn(C)cc3N(Cc3ccccc3C(F)(F)F)C2=O)CC1` [Example 224], 0.076 µM. Consider `COCn1cc2c(n1)N(Cc1ccccc1C(F)(F)F)C(=O)N(C1CCN(c3c(C)ccnc3OC)CC1)C2` [Example 227], for which the IC50 came to 0.01 µM. As for `Cc1cccc(F)c1N1CCC(N2Cc3cn(C)nc3N(Cc3ccccc3C3CC3)C2=O)CC1` [Example 228], the IC50 is 0.01 µM.

For the compound `Cc1nn(C)c(N2CCC(N3Cc4cn(C)nc4N(Cc4ccccc4C(F)(F)F)C3=O)CC2)c1C#N` [Example 229], the IC50 is 0.55 µM. Under `Cc1cccc(F)c1N1CCC(N2Cc3c(cnn3COCC[Si](C)(C)C)N(Cc3ncccc3C(F)(F)F)C2=O)CC1` [Example 230] stands 0.037 µM; under `Cc1cccc(F)c1N1CCC(N2Cc3cn(C)nc3N(Cc3ccccc3C(C)C)C2=O)CC1` [Example 231], 0.017 µM; under `Cc1cccc(F)c1N1CCC(N2Cc3cn(C)nc3N(Cc3ccccc3OC(F)(F)F)C2=O)CC1` [Example 232], 0.016 µM. Under `Cc1cccc(F)c1N1CCC(N2Cc3cn(C)nc3N(Cc3ccccc3Cl)C2=O)CC1` [Example 233] stands 0.01 µM; under `Cc1cccc(F)c1N1CCC(N2Cc3cn(C)nc3N(Cc3c(F)cc(F)cc3OC(C)C)C2=O)CC1` [Example 236], 0.312 µM. Under `Cc1cccc(F)c1N1CCC(N2C(=O)N(Cc3ccccc3C(F)(F)F)c3cnn(COCC[Si](C)(C)C)c3C2C)CC1` (stereo not shown) [Example 237] stands 0.08 µM; under `Cc1nn(C)c(N2CCC(N3Cc4cn(C)nc4N(Cc4ccccc4C(F)(F)F)C3=O)CC2)c1Cl` [Example 238], 0.166 µM. In the case of `Cn1cc2c(n1)N(Cc1ccccc1C(F)(F)F)C(=O)N(C1CCN(c3c(F)cccc3C(F)(F)F)CC1)C2` [Example 243], the IC50 is 0.028 µM. Under `Cn1cc2c(n1)N(Cc1ccccc1C(F)(F)F)C(=O)N(C1CCN(c3c(F)cccc3OC(F)(F)F)CC1)C2` [Example 244] stands 0.016 µM. Consider `Cc1cccc(Cl)c1N1CCC(N2Cc3cn(C)nc3N(Cc3ccccc3C(F)(F)F)C2=O)CC1` [Example 245], for which the IC50 was 0.016 µM. Under `Cc1cccc(F)c1N1CCC(N2Cc3cn(C)nc3N(Cc3ccccc3OCC3CC3)C2=O)CC1` [Example 248] stands 0.016 µM; under `Cc1cccc(F)c1N1CCC(N2Cc3cn(C)nc3N(Cc3cncnc3C(C)C)C2=O)CC1` [Example 249], 0.069 µM; under `Cc1cccc(F)c1N1CCC(N2Cc3cn(C)nc3N(Cc3ccccc3OC3COC3)C2=O)CC1` [Example 250], 0.01 µM. For `Cc1cccc(F)c1N1CCC(N2Cc3cn(C)nc3N(Cc3ccccc3OC(C)C)C2=O)CC1` [Example 251] the value was 0.009 µM; for `CCOc1ccccc1CN1C(=O)N(C2CCN(c3c(C)cccc3F)CC2)Cc2cn(C)nc21` [Example 252], 0.009 µM. Under `CC(C)c1ccccc1N1CCC(N2Cc3cn(C)nc3N(Cc3ccccc3C(F)(F)F)C2=O)CC1` [Example 257] stands 0.009 µM. Turning to `Cn1cc2c(n1)N(Cc1ccccc1C(F)(F)F)C(=O)N(C1CCN(c3ccccc3C3CC3)CC1)C2` [Example 258], the half-maximal inhibitory concentration (IC50) turned out to be 0.014 µM.

As to `Cc1cccc(F)c1N1CCC(N2Cc3nn(C)cc3N(Cc3ccccc3C3CC3)C2=O)CC1` [Example 259], the IC50 is 0.049 µM. As to `Cc1cccc(F)c1N1CCC(N2Cc3nn(C)cc3N(Cc3ccccc3C(C)C)C2=O)CC1` [Example 260], the IC50 worked out at 0.04 µM. Under `Cc1cccc(F)c1N1CC(N2Cc3cn(C)nc3N(Cc3ccccc3C(F)(F)F)C2=O)C1` [Example 264] stands 0.216 µM; under `Cc1cccc(F)c1N1CCC(N2Cc3cn(C)nc3N(Cc3nnccc3OC(C)C)C2=O)CC1` [Example 267], 0.201 µM. For `Cc1cccc(F)c1N1CCC(N2C(=O)N(Cc3ccccc3C3CC3)c3cn(C4CCCCO4)nc3C2C)CC1` (stereo not shown) [Example 268] the value was 0.072 µM; for `COc1nccc(C)c1N1CCC(N2C(=O)N(Cc3ccccc3C3CC3)c3cn(C4CCCCO4)nc3C2C)CC1` (stereo not shown) [Example 269], 0.193 µM.

`Cn1cc2c(n1)CN(C1CCN(c3c(F)cccc3OC(F)(F)F)CC1)C(=O)N2Cc1ccccc1C(F)(F)F` [Example 270]: the IC50 worked out at 0.054 µM. Under `Cn1cc2c(n1)CN(C1CCN(c3c(F)cccc3C(F)(F)F)CC1)C(=O)N2Cc1ccccc1C(F)(F)F` [Example 271] stands 0.051 µM; under `Cn1cc2c(n1)N(Cc1ccccc1C(F)(F)F)C(=O)N(C1CCN(c3c(F)cccc3Cl)CC1)C2` [Example 272], 0.018 µM; under `Cn1cc2c(n1)N(Cc1ccccc1C(F)(F)F)C(=O)N(C1CCN(c3c(F)cccc3F)CC1)C2` [Example 273], 0.013 µM. As for `Cn1cc2c(n1)N(Cc1ccccc1C1CC1)C(=O)N(C1CCN(c3c(F)cccc3OC(F)(F)F)CC1)C2` [Example 281], the IC50 stood at 0.017 µM. For `COc1nccc(C)c1N1CCC(N2Cc3cn(C)nc3N(Cc3ccccc3C3CC3)C2=O)CC1` [Example 283] the value was 0.008 µM; for `Cn1cc2c(n1)N(Cc1ccccc1C1CC1)C(=O)N(C1CCN(c3c(F)cccc3Cl)CC1)C2` [Example 284], 0.009 µM. Under `Cn1cc2c(n1)N(Cc1ccccc1C1CC1)C(=O)N(C1CCN(c3c(F)cccc3F)CC1)C2` [Example 285] stands 0.009 µM; under `Cc1cccc(F)c1N1CCC(N2C(=O)N(Cc3ccccc3C(F)(F)F)c3cn(C4CCCCO4)nc3C2C)CC1` (stereo not shown) [Example 294], 0.056 µM.

Turning to `CCc1cccc(F)c1N1CCC(N2Cc3cn(C)nc3N(Cc3ccccc3C(F)(F)F)C2=O)CC1` [Example 299], the IC50 was 0.402 µM. For `Cn1cc2c(n1)N(Cc1ccccc1C(F)(F)F)C(=O)N(C1CCN(c3c(F)cccc3C(F)F)CC1)C2` [Example 300], the concentration for half-maximal inhibition (IC50) is 0.029 µM.

As to `Cn1cc2c(n1)CN(C1CCN(c3c(F)cccc3C(F)F)CC1)C(=O)N2Cc1ccccc1C(F)(F)F` [Example 301], the concentration for half-maximal inhibition (IC50) worked out at 0.069 µM. For `Cn1cc2c(n1)CN(C1CCN(c3c(F)cccc3Cl)CC1)C(=O)N2Cc1ccccc1C(F)(F)F` [Example 302] the value was 0.048 µM.
